Laboratory results as given in patent US12103925B2, “Crystal and amorphous form of tolebrutinib, preparation method therefor, and use thereof” (HANGZHOU SOLIPHARMA CO., LTD., priority 2021, dated 2024).
Converted amounts (≈) assume the structure as drawn. “And” between values parts separate entries of the source, which are not always exact repeats. Equal entries are not always repeated. “Also recorded” adds a separate entry of the source.

Tests used:
Assay type in all cases: physicochemical
[1] = Stability of the solid form in tablets at 25° C./60% RH (XRPD); details: XRPD before and after storage
Experimental: (§1) Following the formulation in Table 6, API, lactose hydrate, polyvinylpyrrolidone, hydroxypropyl cellulose, microcrystalline cellulose and magnesium stearate were mixed and compressed to obtain a tablet core. Subsequently, the tablet cores are coated with a solution/suspension for film coating, resulting in the preparation of the tablets.
The prepared amorphous tablets, Form 1 tablets and Form 2 tablets were individually placed at 25° C./60% RH for 14 days. XRPD tests were performed before and after storage.

[2] = Stability under light and oxidation conditions; details: for time the form remains stable under light: light (25° C./4500 lx/closed); for chemical purity before and after storage: light and oxidation conditions, 14 days; for time the form remains stable under oxidation: oxidation (in an atmosphere of carbamide peroxide)
[3] = Solubility study in pH 1.2 buffer solution and pH 1.2 SGF (HPLC); details: for Solubility, pH 1.2 SGF: pH 1.2 SGF (with pepsin)
Experimental: (§2) In this application, the HPLC parameters for chemical stability and solubility are as follows:
The amorphous form of tolebrutinib, Form 1 and Form 2 samples of the present application were studied using pH 1.2 buffer solution (preparation: 375.90 mg potassium chloride solid and 1709.47 mg concentrated hydrochloric acid (37%) were added to a 100 mL volumetric flask, 80 mL of pure water was added, adjusted the pH to 1.2 with hydrochloric acid or potassium hydroxide, q.s. to volume) and pH 1.2 SGF (preparation: In 765 μL of concentrated hydrochloric acid (37%) added about 80 mL of water, 1 g of pepsin, 200 mg chlorinated sodium, shook, diluted with water to 100 mL) to form a supersaturated solution, and the dissolved content of the sample in the saturated solution was determined by high performance liquid chromatography (HPLC) at a fixed time point.

[4] = Compressibility study (tablet compression, hardness, tensile strength); details: for tensile strength: calculated, T=2H/πDL*9.8; for diameters / thicknesses: circular tablets, 7.5 mm punch; for diameters / thicknesses / hardness: mean main pressure 1.8 KN; for hardness: radial breaking force, tablet hardness tester
Experimental: The tablet compression was conducted using a Tianxiang rotary tablet press. A circular punch with a diameter of 7.5 mm (07.5 mm) was selected, a filling depth of 17.9 mm and a mean main pressure of 1.8 KN was used to form circular tablets. The tablets' radial breaking force (hardness, H) was measured using a tablet hardness tester. The tablets' diameter (D) and thickness (L) were measured using a vernier caliper. The tensile strength (T) of the powder was calculated using the formula T=2H/πDL*9.8.

[5] = Stability study under long-term and accelerated conditions (XRPD and HPLC); details: for Purity after placing / sample after placing / chemical purity before and after storage: 10 months; for Purity after placing: HPLC; for sample after placing: XRPD; for time the solid form remains unchanged / stable: both long-term (25° C./60% RH/open) and accelerated (40° C./75% RH/open) conditions; for chemical purity before and after storage: long-term and accelerated conditions
Experimental: In this application, X-ray powder diffraction (XRPD) data were collected using a BrukerD8 Advance diffractometer; parameters are as follows: Cu radiation; wavelength: 1.54 Å; Current voltage: 40 KV, 40 mA; Scan range: 3˜40′2θ.
as §2
[…] Regular testing using XRPD and HPLC was performed.
(§3) […] Regular testing using XRPD and HPLC were performed.
as §3

[6] = Solid form before and after the tableting process (XRPD); details: XRPD comparison
Description: as §1

[7] = Dynamic moisture adsorption analysis (DVS), hygroscopicity
Experimental: In this application, dynamic moisture adsorption analysis (DVS) data and isothermal adsorption analysis data were obtained using a TA Instruments Q5000 TGA; parameters are as follows: temperature: 25° C.; relative humidity range: 0% RH-80% RH; dm/dt=0.001%/min; equilibration time: gas: N2; sample pan: platinum pan.

[8] = Polarized light microscope (PLM) particle size; details: PLM image
Experimental: In this application, the polarized light microscope (PLM) images were collected using a XPV˜990E polarized light microscope; a small amount of powder sample was placed on a glass slide, a small amount of mineral oil was added dropwise to disperse the sample, a cover glass was placed on the slide, and the sample was placed on the slide. Observing and taking pictures on the stage.

[9] = Competitive slurry experiments
[10] = listed as amorphous form of tolebrutinib
[11] = listed as amorphous tolebrutinib
[12] = pH 1.2 buffer and pH 1.2 SGF (medium simulating the physiological pH of the human stomach)
[13] = pH 1.2 buffer solution, 2 hours

Row | Compound | Solubility, pH 1.2 SGF ([3]; 2 hours) [mg/mL] | tensile strength [4] [MPa] | diameters [4] [mm] | thicknesses [4] [mm] | hardness [4] [kg] | Purity after placing ([5]; 40° C./75% RH/open) | sample after placing ([5]; 40° C./75% RH/open) | solid form before and after the tableting process [6] | time the form remains stable under light [2] | chemical purity before and after storage [2] | time the form remains stable under oxidation [2] | solubility, approximate level [3, 12] | Solubility, pH 1.2 buffer solution [3, 13] [mg/mL] | particle size [8] [μm] | Purity after placing ([5]; 25° C./60% RH/open) [%] | sample after placing ([5]; 25° C./60% RH/open) | time the solid form remains unchanged / stable [5] [months] | other results
1 | C=CC(=O)N1CCC[C@@H](n2c(=O)n(-c3ccc(Oc4ccccc4)cc3)c3c(N)nccc32)C1 [Amorphous, tolebrutinib] | 36.76 | 1.4 | 7.49 | 4.15 | 7.18 | 98.00% | Amorphous | remained unchanged |  |  |  |  |  |  |  |  |  | time the solid form remains unchanged / stable in the formulation (tablets) [1, 10]: 14 days; time the form remains stable under light [2, 10]: 14 days; time the form remains stable under light [2, 11]: at least 14 days; chemical purity before and after storage [2, 10]: no essential change; chemical purity before and after storage [2, 11]: essentially unchanged; time the form remains stable under oxidation [2, 10]: 14 days; time the form remains stable under oxidation [2, 11]: at least 14 days; solubility compared with the crystal forms [3]: surpassing that of Tolebrutinib Form 1 and Form 2; solubility ([3]; pH 1.2 buffer solution and pH 1.2 SGF, pH 1.2, simulated gastric fluid, thermodynamic from solid, pH 1.2 buffer and pH 1.2 SGF (medium simulating the physiological pH of the human stomach), read-out: solubility, approximate level): ~20 mg/mL (≈ 43.9 mM); solubility at 2 hours ([3]; pH 1.2 buffer solution, pH 1.2, simulated gastric fluid, thermodynamic from solid, 2 hours): 29.1 mg/mL (≈ 63.8 mM); Purity after placing ([5]; 25° C./65% RH/open): 98.87%; sample after placing ([5]; 25° C./65% RH/open): Amorphous; Purity after placing ([5]; 40° C./75% RH/open, listed as amorphous form of tolebrutinib): 98.0%; time the solid form remains unchanged / stable [5, 10]: 10 months; time the solid form remains unchanged / stable [5, 11]: 10 months; chemical purity before and after storage [5, 10]: essentially unchanged; chemical purity before and after storage [5, 11]: essentially unchanged; DVS weight gain ([7]; between 20% RH and 80% RH, 25° C., listed as amorphous form of tolebrutinib): about 1.9%; DVS weight gain ([7]; between 20% RH and 80% RH, 25° C., listed as sample 1-1): about 1.9%
2 | C=CC(=O)N1CCC[C@@H](n2c(=O)n(-c3ccc(Oc4ccccc4)cc3)c3c(N)nccc32)C1 [Form 1, tolebrutinib] | 18.28 | 1.3 | 7.51 | 4.18 | 6.40 | 99.5% and 99.54% | Form 1 | remained unchanged | at least 14 days | basically unchanged | at least 14 days | approximately 20 mg/mL | 21.19 | ≤ 10 | 99.77 | Form 1 | 10 | time the solid form remains unchanged / stable in the formulation (tablets) ([1]; listed as Tolebrutinib Form 1): at least 14 days; solubility, approximate level ([3]; pH 1.2 buffer and pH 1.2 SGF (medium simulating the physiological pH of the human stomach), listed as Tolebrutinib Form 1): around 20 mg/mL; time the solid form remains unchanged / stable ([5]; listed as Tolebrutinib Form 1): at least 10 months; chemical purity before and after storage ([5]; listed as Tolebrutinib Form 1): basically unchanged; also recorded: essentially unchanged; DVS weight gain ([7]; between 20% RH and 80% RH, 25° C., listed as sample 2-1): about 0.46%
3 | C=CC(=O)N1CCC[C@@H](n2c(=O)n(-c3ccc(Oc4ccccc4)cc3)c3c(N)nccc32)C1 [Form 2, tolebrutinib] | 32.45 | 1.7 | 7.51 | 4.18 | 8.31 | 98.24% | Form 2 | remained unchanged | at least 14 days | basically unchanged | at least 14 days | approximately 20 mg/mL | 21.44 | ≤ 10 | 98.87 | Form 2 | 10 | time the solid form remains unchanged / stable in the formulation (tablets) ([1]; listed as Tolebrutinib Form 2): at least 14 days; thermodynamic stability [9]: thermodynamically stable form at temperatures of 30 °C and above; time the solid form remains unchanged / stable ([5]; listed as tolebrutinib Form 2): at least 10 months; chemical purity before and after storage ([5]; listed as Tolebrutinib Form 2): essentially unchanged; chemical purity before and after storage ([5]; listed as tolebrutinib Form 2): basically unchanged; DVS weight gain ([7]; between 0% RH and 80% RH, listed as Tolebrutinib Form 2): 0.3%; DVS weight gain ([7]; between 0% RH and 80% RH, listed as sample 3-1): about 0.34%
